Measured values published in the NIST ThermoML archive (doi:10.1016/j.jct.2016.04.019).

Test: mn = molality of the nth substance listed, in mol/kg
Conditions: 298.15 K, 101.3 kPa, Liquid, Frequency=0.0002 MHz, Alternating current cell with electrodes

CCCCCCCCCCCCOS(=O)(=O)[O-].[Na+] [sodium dodecyl sulfate] + O
Conditions	electrical conductivity [S/m]
m1 = 0.001	0.0071
m1 = 0.00201	0.0137
m1 = 0.00301	0.0209
m1 = 0.00401	0.0275
m1 = 0.00501	0.034
m1 = 0.00602	0.041

C[C@H](CCC(=O)[O-])[C@H]1CC[C@H]2[C@@H]3[C@H](O)C[C@@H]4C[C@H](O)CC[C@]4(C)[C@H]3C[C@H](O)[C@]12C.[Na+] [sodium cholate] + O
Conditions	electrical conductivity [S/m]
m1 = 0.00042	0.0033
m1 = 0.00083	0.0062
m1 = 0.00124	0.009
m1 = 0.00164	0.0118
m1 = 0.00205	0.0144
m1 = 0.00245	0.0171
m1 = 0.00284	0.0197
m1 = 0.00324	0.0225
m1 = 0.00363	0.025
m1 = 0.00401	0.0275
m1 = 0.0044	0.0299
m1 = 0.00478	0.0322
m1 = 0.00516	0.0345
m1 = 0.00553	0.0366
m1 = 0.0059	0.0388
m1 = 0.00627	0.0409
m1 = 0.00664	0.043
m1 = 0.007	0.0451
m1 = 0.00736	0.0473
m1 = 0.00772	0.0493
m1 = 0.00807	0.0512
m1 = 0.00842	0.0532
m1 = 0.00877	0.0553
m1 = 0.00912	0.0573
m1 = 0.00946	0.0591
m1 = 0.00981	0.061
m1 = 0.01015	0.063
m1 = 0.01048	0.0649
m1 = 0.01082	0.0668
m1 = 0.01115	0.0687
m1 = 0.01148	0.0706
m1 = 0.0118	0.0724
m1 = 0.01213	0.0743
m1 = 0.01245	0.0762
m1 = 0.01277	0.078
m1 = 0.01309	0.0798
m1 = 0.0134	0.0816
m1 = 0.01371	0.0834
m1 = 0.01402	0.0853
m1 = 0.01433	0.0871
m1 = 0.01464	0.0889
m1 = 0.01494	0.0906
m1 = 0.01524	0.0924
m1 = 0.01554	0.0942
m1 = 0.01584	0.0959
m1 = 0.01614	0.0976
m1 = 0.01643	0.0993
m1 = 0.01672	0.101
m1 = 0.01701	0.103
m1 = 0.0173	0.104
